Usually IC50 stands for the concentration that gives 50% inhibition.

One assay deals with NaV 1.7 channel (Homo sapiens, UniProt Q15858). Description: Activity against NaV 1.7 channel (optical membrane potential assay). It counts as cell-based. On the procedure: (§1) Compounds of the invention are useful as antagonists of voltage-gated sodium ion channels. Antagonist properties of test compounds were assessed as follows. Cells expressing the NaV of interest were placed into microtiter plates. After an incubation period, the cells were stained with fluorescent dyes sensitive to the transmembrane potential. The test compounds were added to the microtiter plate. The cells were stimulated with either a chemical or electrical means to evoke a NaV dependent membrane potential change from unblocked channels, which was detected and measured with trans-membrane potential-sensitive dyes. Antagonists were detected as a decreased membrane potential response to the stimulus. The optical membrane potential assay utilized voltage-sensitive FRET sensors described by Gonzalez and Tsien (See, Gonzalez, J. E. and R. Y. Tsien (1995) “Voltage sensing by fluorescence resonance energy transfer in single cells” Biophys J 69(4): 1272-80, and Gonzalez, J. E. and R. Y. Tsien (1997) “Improved indicators of cell membrane potential that use fluorescence resonance energy transfer” Chem Biol 4(4): 269-77) in combination with instrumentation for measuring fluorescence changes such as the Voltage/Ion Probe Reader (VIPR®) (See, Gonzalez, J. E., K. Oades, et al. (1999) “Cell-based assays and instrumentation for screening ion-channel targets” Drug Discov Today 4(9): 431-439).
(§2) C) VIPR® Optical Membrane Potential Assay Method with Electrical Stimulation
(§3) The following is an example of how NaV1.3 inhibition activity is measured using the optical membrane potential method#2. Other subtypes are performed in an analogous mode in a cell line expressing the NaV of interest.
(§4) 10 mM CC2-DMPE is vortexed with an equivalent volume of 10% pluronic, followed by vortexing in required amount of HBSS containing 10 mM HEPES. Each cell plate will require 5 mL of 2×CC2-DMPE. 50 µL of 2×CC2-DMPE is to wells containing washed cells, resulting in a 10 μM final staining concentration. The cells are stained for 30 minutes in the dark at RT.
(§5) The required amount of 10 mM DISBAC2(3) is added to a 50 ml conical tube and mixed with 1 μL 10% pluronic for each mL of solution to be made and vortexed together. Then HBSS/HEPES is added to make up 2× solution. Finally, the ABSC1 is added.
(§6) The 2×DiSBAC2(3) solution can be used to solvate compound plates. Note that compound plates are made at 2× drug concentration. Wash stained plate again, leaving residual volume of 50 μL. Add 50 uL/well of the 2×DiSBAC2(3) w/ABSC1. Stain for 30 minutes in the dark at RT.
(§7) The electrical stimulation instrument and methods of use are described in ION Channel Assay Methods PCT/US01/21652, herein incorporated by reference. The instrument comprises a microtiter plate handler, an optical system for exciting the coumarin dye while simultaneously recording the coumarin and oxonol emissions, a waveform generator, a current- or voltage-controlled amplifier, and a device for inserting electrodes in well. Under integrated computer control, this instrument passes user-programmed electrical stimulus protocols to cells within the wells of the microtiter plate.
(§8) Assay Protocol • 1. Insert or use electrodes into each well to be assayed. • 2. Use the current-controlled amplifier to deliver stimulation wave pulses for 3 s. Two seconds of pre-stimulus recording are performed to obtain the un-stimulated intensities. Five seconds of post-stimulation recording are performed to examine the relaxation to the resting state.
(§9) Data are analyzed and reported as normalized ratios of background-subtracted emission intensities measured in the 460 nm and 580 nm channels. Background intensities are then subtracted from each assay channel. Background intensities are obtained by measuring the emission intensities during the same time periods from identically treated assay wells in which there are no cells. The response as a function of time is then reported as the ratios obtained using the following formula: […]

Another assay concerns the target NaV1.8 (Homo sapiens, UniProt Q9Y5Y9). Description: Activity against NaV 1.8 channel (optical membrane potential assay). It counts as cell-based. How it is done:
as §1, §2, §3, §4, §5, §6, §7, §8, §9

The target of assay [1] is T1, NaV1.3 (Homo sapiens, UniProt Q9NY46). Description: Activity against NaV 1.3 channel (optical membrane potential assay). Further details: expressed in transfected cells; host or cells: HEK293. It counts as cell-based. On the procedure: as §1, §2, §3
HEK293 cells stably expressing NaV1.3 are plated into 96-well microtiter plates. After an appropriate incubation period, the cells are stained with the voltage sensitive dyes CC2-DMPE/DiSBAC2(3) as follows.
as §4, §5, §6, §7, §8
Data are analyzed and reported as normalized ratios of background-subtracted emission intensities measured in the 460 nm and 580 nm channels. Background intensities are then subtracted from each assay channel. […]

For assay [2], the target named is T1, NaV1.3. The note with it: read-out: TTX IC50; cited from earlier work.
The target of another assay is NaV1.6 (Homo sapiens, UniProt Q9UQD0). The note with it: read-out: TTX IC50; cited from earlier work.
Another assay concerns the target NaV1.9 (Homo sapiens, UniProt Q9UI33). Conditions: read-out: TTX IC50; cited from earlier work.
The target of another assay is NaV1.1 (Homo sapiens, UniProt P35498). The note with it: read-out: TTX IC50; cited from earlier work.
The next assay has as its target NaV1.2 (Homo sapiens, UniProt Q99250). Conditions: read-out: TTX IC50; cited from earlier work.

Like-named read-outs stand apart in the source and are kept apart here.

Chain of NaV 1.7 channel (Q15858 whole entry): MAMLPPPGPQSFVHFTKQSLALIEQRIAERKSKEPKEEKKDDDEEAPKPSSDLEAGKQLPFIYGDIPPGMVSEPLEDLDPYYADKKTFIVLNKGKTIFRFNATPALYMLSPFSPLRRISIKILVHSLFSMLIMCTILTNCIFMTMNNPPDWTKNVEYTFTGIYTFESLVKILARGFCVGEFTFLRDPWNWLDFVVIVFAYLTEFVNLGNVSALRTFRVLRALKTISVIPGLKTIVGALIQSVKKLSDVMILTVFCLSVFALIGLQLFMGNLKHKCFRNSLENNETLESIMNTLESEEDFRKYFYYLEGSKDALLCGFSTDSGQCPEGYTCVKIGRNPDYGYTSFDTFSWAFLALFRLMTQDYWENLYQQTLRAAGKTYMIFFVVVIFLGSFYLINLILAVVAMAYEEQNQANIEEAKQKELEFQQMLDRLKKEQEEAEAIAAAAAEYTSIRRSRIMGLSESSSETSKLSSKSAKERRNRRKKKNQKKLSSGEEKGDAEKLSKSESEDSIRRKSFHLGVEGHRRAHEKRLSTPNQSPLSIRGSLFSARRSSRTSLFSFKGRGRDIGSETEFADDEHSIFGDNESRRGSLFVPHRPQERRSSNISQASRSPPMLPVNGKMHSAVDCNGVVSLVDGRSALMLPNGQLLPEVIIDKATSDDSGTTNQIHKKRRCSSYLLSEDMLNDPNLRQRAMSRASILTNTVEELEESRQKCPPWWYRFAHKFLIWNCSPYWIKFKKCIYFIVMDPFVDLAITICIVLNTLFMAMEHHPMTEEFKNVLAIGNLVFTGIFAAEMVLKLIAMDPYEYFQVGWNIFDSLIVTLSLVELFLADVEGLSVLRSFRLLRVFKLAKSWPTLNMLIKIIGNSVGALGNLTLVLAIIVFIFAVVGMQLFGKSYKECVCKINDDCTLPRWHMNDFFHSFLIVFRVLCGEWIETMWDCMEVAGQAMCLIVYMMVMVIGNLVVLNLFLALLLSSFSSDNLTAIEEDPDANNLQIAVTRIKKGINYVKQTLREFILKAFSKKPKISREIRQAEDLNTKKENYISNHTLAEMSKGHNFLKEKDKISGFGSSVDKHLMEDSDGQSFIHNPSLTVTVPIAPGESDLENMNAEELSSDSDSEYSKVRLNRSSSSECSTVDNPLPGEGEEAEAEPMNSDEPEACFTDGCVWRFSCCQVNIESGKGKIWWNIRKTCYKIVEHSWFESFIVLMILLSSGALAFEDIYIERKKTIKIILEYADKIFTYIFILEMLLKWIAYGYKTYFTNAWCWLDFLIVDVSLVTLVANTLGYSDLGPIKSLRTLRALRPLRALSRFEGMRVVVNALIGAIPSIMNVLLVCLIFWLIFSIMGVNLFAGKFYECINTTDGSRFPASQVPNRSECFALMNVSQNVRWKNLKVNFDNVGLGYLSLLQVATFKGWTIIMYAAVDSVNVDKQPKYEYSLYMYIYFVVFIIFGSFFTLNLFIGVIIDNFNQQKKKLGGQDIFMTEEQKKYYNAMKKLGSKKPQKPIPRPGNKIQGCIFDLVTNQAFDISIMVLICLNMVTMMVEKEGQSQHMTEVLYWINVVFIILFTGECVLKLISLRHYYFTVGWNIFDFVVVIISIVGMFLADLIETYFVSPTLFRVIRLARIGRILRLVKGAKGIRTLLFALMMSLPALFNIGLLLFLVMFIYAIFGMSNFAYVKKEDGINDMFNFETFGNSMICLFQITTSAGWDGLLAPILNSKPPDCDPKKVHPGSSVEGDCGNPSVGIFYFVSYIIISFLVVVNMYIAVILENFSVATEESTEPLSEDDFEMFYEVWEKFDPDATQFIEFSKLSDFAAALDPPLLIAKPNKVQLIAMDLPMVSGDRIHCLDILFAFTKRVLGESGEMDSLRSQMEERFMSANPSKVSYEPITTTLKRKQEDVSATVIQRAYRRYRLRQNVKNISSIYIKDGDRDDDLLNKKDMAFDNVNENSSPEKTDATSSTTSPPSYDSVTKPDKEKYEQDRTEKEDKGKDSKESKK
Chain of NaV1.8 (Q9Y5Y9 whole entry): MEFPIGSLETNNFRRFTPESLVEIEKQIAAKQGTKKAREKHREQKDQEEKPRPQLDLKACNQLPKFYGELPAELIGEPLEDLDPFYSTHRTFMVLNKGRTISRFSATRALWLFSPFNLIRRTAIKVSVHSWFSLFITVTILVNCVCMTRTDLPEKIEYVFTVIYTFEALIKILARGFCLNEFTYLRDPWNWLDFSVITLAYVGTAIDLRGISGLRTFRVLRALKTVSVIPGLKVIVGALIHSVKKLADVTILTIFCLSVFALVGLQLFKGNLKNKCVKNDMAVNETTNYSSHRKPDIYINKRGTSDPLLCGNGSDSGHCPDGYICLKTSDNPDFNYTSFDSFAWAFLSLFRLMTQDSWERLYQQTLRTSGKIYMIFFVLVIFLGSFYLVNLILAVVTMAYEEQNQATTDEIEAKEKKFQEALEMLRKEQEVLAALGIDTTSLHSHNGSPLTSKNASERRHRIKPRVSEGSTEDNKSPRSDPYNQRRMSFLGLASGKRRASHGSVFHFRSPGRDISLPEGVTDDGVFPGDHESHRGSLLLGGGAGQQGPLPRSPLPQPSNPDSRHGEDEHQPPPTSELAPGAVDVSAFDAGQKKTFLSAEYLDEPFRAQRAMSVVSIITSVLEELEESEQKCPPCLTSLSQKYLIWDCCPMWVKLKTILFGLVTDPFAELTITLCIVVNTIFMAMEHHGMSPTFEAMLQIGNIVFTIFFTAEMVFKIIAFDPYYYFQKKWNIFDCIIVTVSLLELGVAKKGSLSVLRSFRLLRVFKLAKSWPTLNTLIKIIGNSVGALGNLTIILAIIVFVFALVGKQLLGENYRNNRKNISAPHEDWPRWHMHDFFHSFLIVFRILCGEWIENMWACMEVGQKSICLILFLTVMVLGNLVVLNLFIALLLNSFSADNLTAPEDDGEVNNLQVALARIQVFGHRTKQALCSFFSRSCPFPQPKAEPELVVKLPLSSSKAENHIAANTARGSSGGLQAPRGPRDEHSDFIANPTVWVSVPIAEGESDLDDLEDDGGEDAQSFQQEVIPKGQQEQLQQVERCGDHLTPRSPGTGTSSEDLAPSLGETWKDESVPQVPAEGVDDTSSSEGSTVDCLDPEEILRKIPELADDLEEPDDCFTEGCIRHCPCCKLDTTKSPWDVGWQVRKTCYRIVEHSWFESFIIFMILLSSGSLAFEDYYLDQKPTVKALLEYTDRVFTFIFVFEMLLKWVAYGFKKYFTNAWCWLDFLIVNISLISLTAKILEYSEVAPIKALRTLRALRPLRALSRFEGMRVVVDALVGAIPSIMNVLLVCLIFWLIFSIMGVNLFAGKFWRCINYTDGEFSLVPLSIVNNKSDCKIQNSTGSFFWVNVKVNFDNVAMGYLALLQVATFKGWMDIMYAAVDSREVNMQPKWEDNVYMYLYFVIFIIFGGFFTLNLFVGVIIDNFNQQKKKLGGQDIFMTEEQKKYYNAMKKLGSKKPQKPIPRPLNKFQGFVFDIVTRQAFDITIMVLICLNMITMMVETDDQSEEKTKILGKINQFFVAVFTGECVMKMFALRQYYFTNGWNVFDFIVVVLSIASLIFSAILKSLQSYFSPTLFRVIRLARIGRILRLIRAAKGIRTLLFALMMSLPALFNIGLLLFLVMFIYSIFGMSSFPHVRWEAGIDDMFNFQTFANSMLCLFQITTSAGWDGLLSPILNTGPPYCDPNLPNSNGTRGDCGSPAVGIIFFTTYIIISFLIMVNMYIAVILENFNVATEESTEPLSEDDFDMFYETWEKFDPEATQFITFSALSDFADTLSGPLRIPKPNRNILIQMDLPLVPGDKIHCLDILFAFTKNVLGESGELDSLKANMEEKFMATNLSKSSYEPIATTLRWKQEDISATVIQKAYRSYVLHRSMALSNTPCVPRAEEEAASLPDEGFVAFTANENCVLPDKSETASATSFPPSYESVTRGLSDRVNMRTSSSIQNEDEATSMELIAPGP

Consider `CC(C)(C)c1ccc(C(=O)Nc2cccc(NS(C)(=O)=O)c2)c(Oc2ccc(F)cc2Cl)c1` [Compound 10], for which the IC50 on NaV 1.7 channel lay in the range of 2 to 10 µM; at NaV1.8 it was 2 to 10 µM; at NaV1.3 [1], 10 to 20 µM.

Turning to `CC(C)(C)c1ccc(C(=O)Nc2cccc(S(C)(=O)=O)c2)c(Oc2ncccc2C#N)c1` [Compound 14], the results for the half-maximal inhibitory concentration (IC50) on NaV 1.7 channel, at NaV1.8 and on NaV1.3 [1] were below 2 µM, below 2 µM and 2 to 10 µM, respectively.

In the case of `CC(C)(C)c1ccc(C(=O)Nc2cccc(C(N)=O)c2)c(Oc2ccc(F)cc2Cl)c1` [Compound 8], the IC50 was 2 to 10 µM at NaV 1.7 channel, below 2 µM at NaV1.8 and 10 to 20 µM at NaV1.3 [1].

Take `NC(=O)c1cccc(NC(=O)c2ccccc2Cc2ccccc2)c1` [Compound 1]: the IC50 at NaV1.3 [1] is above 20 µM.

For the molecule `NC(=O)c1cccc(NC(=O)c2ccccc2Oc2ccc(C(F)(F)F)cc2)c1` [Compound 5], the 50% inhibitory concentration (IC50) on NaV1.3 [1] is 10 to 20 µM.

In the case of `NC(=O)c1cccc(NC(=O)c2ccccc2Oc2ccc(F)cc2)c1` [Compound 3, N-(3-carbamoylphenyl)-2-(4-fluorophenoxy)benzamide], the IC50 on NaV1.8 is below 2 µM; at NaV1.3 [1], 10 to 20 µM.

Consider `CC(C)(C)c1ccc(C(=O)Nc2cccc(S(C)(=O)=O)c2)c(Oc2cccc(C(F)(F)F)n2)c1` [Compound 17], for which the IC50 at NaV 1.7 channel was 10 to 20 µM; at NaV1.8, below 2 µM; at NaV1.3 [1], 10 to 20 µM.

Consider `NC1=N[C@H](O)[C@H]2[C@H]3O[C@]4(O)O[C@@H]([C@@H](O)[C@@]2(N1)[C@@H]4O)[C@]3(O)CO` [TTX, tetrodotoxin], for which the IC50 on NaV1.3 [2] is 0.015 µM; on NaV1.6, 0.006 µM; on NaV1.9, 1 µM; on NaV1.1, 0.01 µM; at NaV1.2 it was 0.01 µM.

For `CC(C)(C)c1ccc(C(=O)Nc2cccc(S(C)(=O)=O)c2)c(Oc2ccc(F)cc2Cl)c1` [Compound 9], the values for the IC50 on NaV 1.7 channel, at NaV1.8 and on NaV1.3 [1] were 2 to 10 µM, below 2 µM and 10 to 20 µM, respectively.

Turning to `CC(C)(C)c1ccc(C(=O)Nc2cccc(C(N)=O)c2)c(Oc2ccc(C(F)(F)F)nc2)c1` [Compound 7], the results for the 50% inhibitory concentration (IC50) at NaV 1.7 channel, at NaV1.8 and on NaV1.3 [1] were 2 to 10 µM, below 2 µM and 10 to 20 µM, respectively.

Take `CNC(=O)c1cccc(NC(=O)c2ccc(C(C)(C)C)cc2Oc2ccc(F)cc2Cl)c1` [Compound 11]: the IC50 was 2 to 10 µM at NaV 1.7 channel, below 2 µM on NaV1.8 and 2 to 10 µM on NaV1.3 [1].

For the molecule `NC(=O)c1cccc(NC(=O)c2ccccc2Oc2ccc(Br)cc2)c1` [Compound 4], the IC50 on NaV1.8 was below 2 µM; on NaV1.3 [1], 2 to 10 µM.

For `CC(C)(C)c1ccc(C(=O)Nc2cccc(S(C)(=O)=O)c2)c(Oc2ncccc2C(F)(F)F)c1` [Compound 18], the IC50 at NaV 1.7 channel is 2 to 10 µM; on NaV1.8, below 2 µM; at NaV1.3 [1] it was 10 to 20 µM.

For the molecule `CC(C)(C)c1ccc(C(=O)Nc2cccc(S(C)(=O)=O)c2)c(Oc2cnccc2C(F)(F)F)c1` [Compound 15], the figures for the IC50 on NaV 1.7 channel, on NaV1.8 and at NaV1.3 [1] were 2 to 10 µM, below 2 µM and 2 to 10 µM, respectively.

On to `Cc1ncccc1Oc1cc(C(C)(C)C)ccc1C(=O)Nc1cccc(C(N)=O)c1` [Compound 6], for which the concentration for half-maximal inhibition (IC50) on NaV 1.7 channel was above 20 µM; on NaV1.8, below 2 µM; on NaV1.3 [1], above 20 µM.

Regarding `NC(=O)c1cccc(NC(=O)c2ccccc2Nc2cccc(F)c2)c1` [Compound 2], at NaV1.3 [1], the IC50 was above 20 µM.

`CC(C)(C)c1ccc(C(=O)Nc2cccc(S(C)(=O)=O)c2)c(Oc2cccnc2C(F)(F)F)c1` [Compound 16]: the IC50 was 2 to 10 µM on NaV 1.7 channel, below 2 µM at NaV1.8 and 10 to 20 µM at NaV1.3 [1].

With `Cc1ncccc1Oc1cc(C(C)(C)C)ccc1C(=O)Nc1cccc(S(C)(=O)=O)c1` [Compound 12], the values for the IC50 on NaV 1.7 channel, on NaV1.8 and at NaV1.3 [1] were 2 to 10 µM, below 2 µM and above 20 µM, respectively.

As for `CN(C(=O)c1ccc(C(C)(C)C)cc1Oc1ccc(F)cc1Cl)c1cccc(S(C)(=O)=O)c1` [Compound 19, 4-tert-Butyl-2-(2-chloro-4-fluorophenoxy)-N-methyl-N-(3-(methylsulfonyl)phenyl)benzamide], the IC50 on NaV 1.7 channel, on NaV1.8 and on NaV1.3 [1] was 2 to 10 µM each time.
